Source: ChEMBL document CHEMBL1629496, “Four diphenylpropanes and a cycloheptadibenzofuran from Bussea sakalava from the Madagascar dry forest” (J Nat Prod, 2010)
pIC50: −log10 of the molar value.

Tested on: A2780
Assay: Antiproliferative activity against drug-sensitive human A2780 cells
Type: functional, cell-based

In order of falling pIC50:
1. COc1cc(OC)c(CCCc2ccc(OC)c(O)c2O)cc1O [BUSSEALIN B]  4.62
2. COc1ccc(CCCc2ccc(OC)c(O)c2O)cc1O [BUSSEALIN C]  4.44
3. COc1ccc(CCCc2cc(O)c(OC)c(O)c2)c(O)c1O [BUSSEALIN A]  4.44
4. COc1cc(OC)c(OC)cc1CCCc1ccc(OC)c(O)c1O [BUSSEALIN D]  4.40
5. COc1c(O)c2c3c(oc4c(OC)c(O)cc(c43)CCC2)c1OC [BUSSEALIN E]  4.35
